Laboratory results as given in patent publication US12637430B2, “Interleukin-17 (IL-17) inhibitors” (priority 2020, dated 2026).
Like-named read-outs stand apart in the source and are kept apart here.

Columns and labels:
[1] = molecular target: T1, human IL-17A (Homo sapiens, UniProt Q16552); test: IL-17A enzyme-linked immunosorbent assay (competitive ELISA, IL-17A/IL-17R binding)
T1 construct: purchased Sino Biological Inc. 12047-H07B
T1 sequence (Q16552 24-155): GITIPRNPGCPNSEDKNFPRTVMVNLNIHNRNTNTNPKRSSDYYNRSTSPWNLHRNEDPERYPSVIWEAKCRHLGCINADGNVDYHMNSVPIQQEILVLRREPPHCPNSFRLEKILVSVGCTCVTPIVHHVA
Method: The inhibition of receptor-ligand binding by human IL-17A inhibitors was quantified by competitive ELISA. 0.2 μg/mL of IL-17A (Sino Biological Inc. Cat #12047-H07B) was added in a 96-well plate at 100 μl per well for incubation for 30 min under 37° C. The 96-well plate was washed with PBST (PBS, 0.05% Tween-20) at 200 μl per well for 4 times, and then added with 200 μl of 5% skim milk and placed on a shaker for incubation at 25° C. for 30 min. The compound to be tested was prepared at 100× concentration ranging from 0.003 μM to 30 μM. After washed with PBST (PBS, 0.05% Tween-20) 4 times, the plate was added with 89 μl of PBST and 1 μl of the compound to be tested at 100× concentration followed by uniformly mixing and pre-incubation at 25° C. for 10 min. Then the plate was added with 10 μl of 16 nM IL-17R, and incubated on a shaker at 25° C. for 30 min. After washed for 4 times, the plate was added with 100 μl of anti-Fc-tag horseradish peroxidase (HRP)-conjugated antibody, and incubated on a shaker at 25° C. for 30 min. After washed 4 times, the plate was added with 100 μl of 3,3′, 5,5″-tetramethylbenzidine (TMB) substrate solution, and incubated at 25° C. in the dark. Then the plate was added with 20% HCl, followed by detection of the light absorption value at a wavelength of 450 nm by a microplate reader. The compounds prepared in the above examples were tested for human IL-17A inhibitory activity according to the above method.

[2] = molecular target: T2, human IL-17A protein (Homo sapiens, UniProt Q16552); test: Inhibition of chemokine GROα/CXCL1 generation induced by human IL-17A protein in HT-29 cell; type: cell-based
T2 construct: purchased R&D 317-ILB
T2 sequence (Q16552 20-155 limits assumed): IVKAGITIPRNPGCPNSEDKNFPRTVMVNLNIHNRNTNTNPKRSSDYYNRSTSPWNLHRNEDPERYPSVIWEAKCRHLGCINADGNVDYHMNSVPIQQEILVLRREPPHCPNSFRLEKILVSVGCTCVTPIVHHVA
Method: HT-29 (Zhongyuan Gongchuang Technology Co., Ltd. of Chengdu, Sichuan) was added to a 96-well plate at 5×10^4 cells/well, and cultured overnight in a incubator at 37° C. A mixture of 30 ng/mL of human IL-17A protein (R&D, #317-ILB) and IL-17A small molecule inhibitors with gradient concentrations or 0.3 μg/mL of positive control IL-17A antibody (R&D, #AF-317-NA) was incubated at 37° C. for 1 h, and then added to the above-mentioned 96-well plate, and incubated with HT-29 cells at 37° C. for 48 hours. Then the GROα level in the cell culture supernatant was detected by an ELISA kit (Cisbio, #62HCXC1PEG) of the GROα.
According to the methods described in Experimental Examples 1 and 2, the compounds prepared in the above-mentioned examples were subjected to the experiment on inhibition of chemokine GROα/CXCL1 generation induced by human IL-17A protein in HT-29 cell.

[3] = Pharmacokinetic properties in mice (intravenous injection/oral gavage); type: in vivo; details: oral bioavailability
Method: (§1) In order to investigate the pharmacokinetic properties of the compound in rats, 3 rats were administered with the compounds at corresponding doses by intravenous injection/oral gavage, respectively. The anticoagulated whole blood of the rats were collected and the plasma was separated at 5 min, 15 min, 30 min, 1 h, 2 h, 4 h, 8 h, 24 h after administrated. In order to investigate the pharmacokinetic properties of the compound in mice, 6 mice were administered with the compound at the corresponding dose by intravenous injection/oral gavage. The mice administered by each route were divided into A group and B group. The anticoagulated whole blood was collected from the mice in group A at 5 min, 30 min, 2 h, and 8 h after the administration, and the anticoagulated whole blood was collected from the mice in group B at 15 min, 1 h, 4 h, and 24 h after the administration, and plasma was separated. In order to investigate the pharmacokinetic properties of dogs, two groups of 4 beagle dogs (2 males+2 females) were administered with the compound at corresponding doses by intravenous injection/oral gavage. The anticoagulated whole blood of each dog was collected, and the plasma was separated at 2 h, 4 h, 8 h, 12 h, 24 h, 36 h after the administration.
(§2) Plasma concentrations of compounds were determined by standard curve calibration by LC-MS. […]

[4] = Pharmacokinetic properties in rats (intravenous injection/oral gavage); type: in vivo; details: oral bioavailability
Method: as §1, §2

[5] = Pharmacokinetic properties in dogs (intravenous injection/oral gavage); type: in vivo; details: oral bioavailability, beagle dogs
Method: as §1, §2

[6] = system: cytochrome P450 1A2 (CYP1A2); type: in vitro ADME; details: human hepatocytes
Method: In order to evaluate the induction of CYP enzymes in human hepatocytes by the compounds prepared in the above examples at 10 μM, Omeprazole (positive control) and the compound prepared in Example 32 (control compound 2) disclosed in patent application. WO2020/127685A1 were used as controls.

[7] = system: imiquimod-induced psoriasis mouse model; test: Pharmacodynamic test on an imiquimod cream-induced psoriasis model in mice; type: in vivo, C57BL/6N mouse
Method: Each 10-week-old female C57 black 6 (C57BL/6N) mouse was shaved to approximately 2.5×4 cm on the back, which the imiquimod (IMQ, Imiquimod) cream continuously applies from the day 1-4, so as to establish a psoriasis model. Each mouse was administrated with the compound 51 prepared in this application by gavage (3, 10, 30 mg/kg) once a day, and administrated with IL-17A antibody solution by intraperitoneal injection (Ab, 2 mg/kg) every other day, or administrated with dexamethasone solution by intraperitoneal injection (10 mg/kg) once a day. […] On day 1 and day 5 of the experiment, the skin thickness of the mice was measured to investigate the skin thickening induced by IMQ.
On day 5 of the experiment, the skins of mice in each group were collected, the mRNA expression level of IL6 was detected by quantitative reverse transcription polymerase chain reaction (RT-qPCR) test. […] On day 5 of the experiment, the plasma of mice in each group was collected, and the IL6 protein level was measured.
On day 5 of the model, the skin samples were collected from the back of each mouse. The samples were fixed in 4% paraformaldehyde, and stained with hematoxylin-eosin (HE) to investigate the protective effect of compound 51 on skin pathological damage.

| Compound | IC50 [1] | IC50 [2] | F % (Mice) [3] | F % (Rats) [4] | F %(Dogs) [5] | Note 1A2 (CYP1A2 induction) ([6]; 10 μM) | mRNA Expression level % of the positive control 1A2 ([6]; 10 μM) | mRNA Expression level Fold of induction 1A2 ([6]; 10 μM) | Note 1A2 (CYP1A2 induction) ([6]; 10 μM, listed as compound 51) | skin thickening induced by IMQ (skin thickness day 1 and day 5) ([7]; compound 51 gavage 3, 10, 30 mg/kg once a day, antibody i.p. 2 mg/kg every other day, FIG. 1B) | skin pathological damage (HE staining) ([7]; day 5, 3, 10 and 30 mg/kg, FIGS. 2A-G) | mRNA expression level of IL6 in skin (RT-qPCR) ([7]; day 5, gavage 3, 10, 30 mg/kg, FIG. 1C) | IL6 protein level in plasma ([7]; day 5, gavage 3, 10, 30 mg/kg, FIG. 1D) | AUC of the psoriasis area and severity index (PASI) scoring curve (skin inflammation) ([7]; gavage 3, 10, 30 mg/kg once a day, FIG. 1A) | mRNA Expression level Fold of induction 1A2 ([6]; concentration 25/750 μM (positive control)) |
| --- | --- | --- | --- | --- | --- | --- | --- | --- | --- | --- | --- | --- | --- | --- | --- |
| Cc1n[nH]c(C)c1-c1ncc(NC(=O)[C@@H](NC(=O)c2ccnn2C(C)C)C(C2CC2)C2CC2)cc1F [Compound 51] | 42 nM | 224 nM | 56% | 46% | 58% | Non- | 2.20% | 1.26 | no inducing effect | reversed the skin thickening caused by IMQ at different levels | may inhibit the infiltration and damage of skin inflammatory cells induced by IMQ at different levels | dependently reversed the up-regulation of IL6 expression level | dependently inhibited the increase of IL6 protein level in the plasma | reduced the level of skin inflammation induced by IMQ |  |
| COc1ccc2[nH]c([S+]([O-])Cc3ncc(C)c(OC)c3C)nc2c1 (stereo not drawn) [Omeprazole, reference compound] |  |  |  |  |  |  |  |  |  |  |  |  |  |  | 12.8 |
